Measured values taken from patent US20080181875A1, “USE OF CYCLOPHILIN AS ANTIOXIDANT AND PREVENTION OF CYCLOSPORIN A-INDUCED TOXICITY IN CELL TRANSPLANTATION BY OVEREXPRESSION OF CYCLOPHILIN” (priority 2002, published 2008).
Counter-ions that a name gives are not always drawn. Values belong to the molecule of their own block, whether it stands above or below them.

Experiments:
ROS [1] = experiment: ROS content of CypA-transfected cells in DM with or without CsA (DCF FACS); type: cell-based, rat; conditions: DM containing no CsA or 10 μM CsA
Procedure: These transfected cells were grown at 37° C. in the presence of 10 μM DCF, washed with PBS, resuspended in […] of PBS, and measured for ROS content by FACS analysis.

H9c2 myoblasts [2] = experiment: Muscle differentiation of CypA-transfected cells in DM (morphology, time required); type: cell-based, rat; conditions: for muscle differentiation in DM: transfected H9c2 cells, no CsA; for time required for muscle differentiation: transfected H9c2 cells in DM, mock control 4-5 days
Procedure: To determine the role of CypA, that is, PPIase, in muscle differentiation, time periods required for the complete differentiation of the three CypA gene-transfected cells, CypA/wt, CypA/W121F and CypA/R55A were measured while they were cultured in DM. In addition, their morphological changes were observed when they were completely differentiated.

H9c2 myoblasts [3] = experiment: Survival and morphology of CypA-transfected cells exposed to CsA or H2O2; type: cell-based, rat; conditions: 10 μM CsA 72 h in DM; for protection from CsA- or H2O2-induced apoptotic cell death: 300 μM H2O2 12 h in DMEM/F-12
Procedure: Separately, the cells were exposed to 300 μM H2O2 for 12 hours in DMEM/F-12. […] Here, % cell survival is obtained by dividing […].

PPIase activity = conditions: cited from earlier work
Bax [4] = experiment: Bax expression in CypA-transfected cells exposed to CsA or H2O2 (Western blot); type: cell-based, rat; conditions: exposed to CsA; similar results with H2O2
Excerpt: In the histograms of FIG. 7f, bars express the Bax levels in the samples as percentages compared to the mock-transfected cells.

H9c2 myoblasts [5] = experiment: Effect of antioxidants on muscle differentiation (morphology); type: cell-based, rat; conditions: 5 days in DM; 0.4 mM DFOM, 2000 units/ml catalase, 10 mM Tiron
Procedure: H9c2 myoblasts were cultured for 5 days in DM containing 0.4 mM of DFOM, 2000 units/ml of catalase, 10 mM of Tiron (4,5-dihydroxy-1,3-benzene-disulfonic acid) to induce differentiation, during which morphological changes were observed. The control is the myoblasts which were induced to differentiate in the absence of […].

H9c2 myoblasts [6] = experiment: Apoptosis by in-situ TUNEL assay and DNA fragmentation analysis; type: cell-based, rat; conditions: 72 hours in DM
Procedure: TUNEL analysis was performed using ApopTag Flurescein In situ Apoptosis Detection kit (Intergen, Purchase, N.Y.). The results are given in FIG. 2c where arrows indicate TUNEL positive cells.
Once cells undergo apoptosis, the DNA is digested into fragments diferring by 180-200 bp by endonuclease. […] DNA fragmentation aiming to identify the DNA laddering pattern was performed as follows. […] The cell lysates thus obtained were treated with 50 μg/ml RNase A at 37° C. for 2 hours and then with 500 μg/ml proteinase K at 55° C. for 2 hours. DNA was extracted by a phenol/chloroform method and precipitated in 70% (v/v) isopropanol. After being centrifuged at 15,000 rpm for 15 min, the precipitates were dissolved in a TE buffer (10 mM Tris-HCl (pH 8.0), 1 mM EDTA).

[7] = system: H9c2 rat cardiac myoblasts; experiment: Morphological observation of muscle differentiation of myoblasts in DM; type: cell-based; conditions: 72 hours in DM
Procedure: As a control, myoblasts were cultured in the absence of the drugs. Before use, the myoblasts were cultured to a cell confluency of about 70%.

Bax [8] = experiment: Western blot of apoptosis-accelerating protein Bax; type: cell-based, rat; conditions: DM; 1-10 μM CsA, 9 μM FK506, 200 nM ascomycin
Excerpt: The results are shown in the upper part of FIG. 6a. β-actin is used as a loading control.
After being scanned, the Western blot analysis bands were quantified by Bio-Rad imaging densitometer. The results are shown in the lower part of FIG. 6a. In the histograms, the bars express the Bax levels of the samples as mean±standard deviation values of the fold numbers compared to those of the control.

myogenin and MRF4 = experiment: Western blot of myogenic markers myogenin and MRF4; type: cell-based, rat
Procedure: In addition, the protein expression levels of the myogenin and MRF4, early and late myogenic markers, were determined by Western blot analysis. To this end, myoblast extracts treated with the drugs were separated on SDS-PAGE and transferred onto a nitrocellulose membrane which was then blocked and reacted with predetermined primary antibodies (polyclonal myogenic antibody and polyclonal MRF4 antibody (Santa Cruz, Calif., USA) and then with a secondary antibody (anti-rabbit IgG-HRP conjugate with a chemiluminescent reactive enzyme able to detect the primary antibodies) (Santa Cruz, Calif., USA). Finally, the specimens were detected by enhanced ECL-plus chemiluminescence (Amersham Pharmacia Biotech, Piscataway, N.J., USA). Non-myogenic β-actin protein was used as a loading control.

calcineurin = experiment: Calcineurin phosphatase activity in H9c2 myoblasts (BioMol Quantizyme assay); conditions: for influence on basal calcineurin phosphatase activity / concentration at which maximal inhibitory effect on the increased calcineurin phosphatase activity was observed: H9c2 myoblasts; for inhibition of calcineurin phosphatase activity induced during muscle differentiation: H9c2 myoblasts in DM; for concentration at which maximal inhibitory effect on the increased calcineurin phosphatase activity was observed: activity induced by DM (2 days) and PE (12 h)
H9c2 cardiac myoblasts = experiment: Cell cycle and apoptosis (sub-G0/G1) by propidium iodide FACS; type: cell-based, rat; conditions: DM 72 h
Excerpt: Using 20,000 cells obtained from each of the cultures, measurements were made of percentages of cells in each phase of the cell cycle (G0/G1, S and G2/M) and percentages of cells in sub-G0/G1 aliquots (that is, apoptotic cells).

[9] = system: mitochondria membrane potential; experiment: Mitochondria membrane potential by DiOC6[3] flow cytometry; type: cell-based; conditions: 48 hours in DM; 1-10 μM CsA, 9 μM FK506, 200 nM ascomycin
Procedure: H9c2 myoblasts cultured in PM and in DM in the absence of the drugs were measured for Δψm (control). In the FACS plots of FIG. 6b, the second peaks and the first peaks represent viable cells with high DiOC6[3] contents and dead cells with DiOC6[3]. Numerals mean percentages of the myoblasts with decreased Δψm.

ROS [10] = experiment: Cellular ROS level by DCF flow cytometry (FACS); type: cell-based, rat; conditions: 10 μM, 24 hours in DM
Procedure: H9c2 myoblasts were cultured for 24 hours in PM and in DM, and then in the presence of 10 μM DCF (2′,7′-dichlorofluorescein). After being harvested, the cells were washed once with PBS and resuspended in […] of PBS. The cellular levels of ROS generated were measured by flow cytometry (FACS), there values were regarded as controls. […] ROS levels were analyzed by FACS. […] ROS levels were measure as the above. The results are given in FIG. 5a where numerals indicate mean±standard deviation values of the ROS levels in the cells.

transplanted myoblasts = conditions: cited from earlier work

Molecule: CypA/R55A: mutated rat CypA with alanine instead of arginine at position 55, transfected into H9c2 myoblasts
- ROS level (ROS [1]): significantly increased ROS generation
- muscle differentiation in DM (H9c2 myoblasts [2]): no traces of differentiation
- protection from CsA- or H2O2-induced apoptotic cell death (H9c2 myoblasts [3]): increases ROS-induced apoptosis
- PPIase activity compared to the wild type protein (PPIase activity): one thousandth
- Bax expression (Bax [4]): increased Bax expression

Molecule: O=S(=O)(O)c1cc(O)c(O)c(S(=O)(=O)O)c1 [Tiron, 4,5-dihydroxy-1,3-benzene-disulfonic acid]
- effect on muscle differentiation (H9c2 myoblasts [5]): blocking activity

- morphological changes during muscle differentiation [7]: no morphological differences
- influence on basal calcineurin phosphatase activity (calcineurin): no influence
- inhibition of calcineurin phosphatase activity induced during muscle differentiation (calcineurin): completely inhibit
- concentration at which maximal inhibitory effect on the increased calcineurin phosphatase activity was observed (calcineurin): 20 nM
- mitochondria membrane potential (Δψm) [9]: not observed
Molecule: CC[C@@H]1/C=C(\C)C[C@H](C)C[C@H](OC)[C@H]2O[C@@](O)(C(=O)C(=O)N3CCCC[C@H]3C(=O)O[C@H](/C(C)=C/[C@@H]3CC[C@@H](O)[C@H](OC)C3)[C@H](C)[C@@H](O)CC1=O)[C@H](C)C[C@@H]2OC [ascomycin]
- apoptosis (TUNEL, DNA laddering) (H9c2 myoblasts [6]): not related to apoptosis
- Bax expression (Bax [8]): do not affect
- myogenin and MRF4 protein expression (myogenin and MRF4; FK506, ascomycin in DM): no influence
- % Apoptosis (sub-G0/G1 fraction) (H9c2 cardiac myoblasts; Ascomycin 200 nM): 10 ± 3%
- % G0/G1 (H9c2 cardiac myoblasts; Ascomycin 200 nM): 85 ± 3%
- % G2/M (H9c2 cardiac myoblasts; Ascomycin 200 nM): 4 ± 1%
- % S (H9c2 cardiac myoblasts; Ascomycin 200 nM): 2 ± 1%

Molecule: CC(=O)N(O)CCCCCNC(=O)CCC(=O)N(O)CCCCCNC(=O)CCC(=O)N(O)CCCCCN [DFOM, deferoxamine mesylate]
- effect on muscle differentiation (H9c2 myoblasts [5]): blocking activity

Molecule: C/C=C/C[C@@H](C)[C@@H](O)[C@H]1C(=O)N[C@@H](CC)C(=O)N(C)CC(=O)N(C)[C@@H]([C@@H](C)CC)C(=O)N[C@@H](C(C)C)C(=O)N(C)[C@@H](CC(C)C)C(=O)N[C@@H](C)C(=O)N[C@H](C)C(=O)N(C)[C@@H](CC(C)C)C(=O)N(C)[C@@H](CC(C)C)C(=O)N(C)[C@@H](C(C)C)C(=O)N1C [SDZ NIM811]
- ROS level (mean±standard deviation) (ROS [10]): 634±20
- apoptosis (TUNEL, DNA laddering) (H9c2 myoblasts [6]): dose dependent
- morphological changes during muscle differentiation [7]: blocks the myoblast differentiation
- myogenin and MRF4 protein expression (myogenin and MRF4; 1 μM, DM): partial suppression
- myogenin and MRF4 protein expression (myogenin and MRF4; concentrations higher than 1 μM, DM): complete suppression

Molecule: CypA/W121F: mutated rat CypA with phenylalanine instead of tryptophan at position 121, transfected into H9c2 myoblasts
- ROS level (ROS [1]): removed a greater amount of ROS than did CypA/wt
- time required for muscle differentiation (H9c2 myoblasts [2]): 14 to 15 days
- muscle differentiation in DM (H9c2 myoblasts [2]): undergo muscle differentiation
- protection from differentiation blockage (H9c2 myoblasts [3]): not from differentiation blockage
- protection from CsA- or H2O2-induced apoptotic cell death (H9c2 myoblasts [3]): protect cells
- PPIase activity compared to the wild type protein (PPIase activity): half
- Bax expression (Bax [4]): inhibited Bax expression

Molecule: O=P1(N(CCCl)CCCl)NCCCO1 (stereo not shown) [cyclophosphamide]
- success of allogenic myoblast transplantation (transplanted myoblasts; in vivo): did not increase the survival

- morphological changes during muscle differentiation [7]: no morphological differences
- influence on basal calcineurin phosphatase activity (calcineurin): no influence
- inhibition of calcineurin phosphatase activity induced during muscle differentiation (calcineurin): completely inhibit
- mitochondria membrane potential (Δψm) [9]: not observed
Molecule: C=CC[C@@H]1/C=C(\C)C[C@H](C)C[C@H](OC)[C@H]2O[C@@](O)(C(=O)C(=O)N3CCCC[C@H]3C(=O)O[C@H](/C(C)=C/[C@@H]3CC[C@@H](O)[C@H](OC)C3)[C@H](C)[C@@H](O)CC1=O)[C@H](C)C[C@@H]2OC [FK506, tacrolimus]
- apoptosis (TUNEL, DNA laddering) (H9c2 myoblasts [6]): not related to apoptosis
- Bax expression (Bax [8]): do not affect
- myogenin and MRF4 protein expression (myogenin and MRF4; FK506, ascomycin in DM): no influence
- success rate of myoblast transplantation (transplanted myoblasts; clinical trials and animal model studies): ≥ 95%
- concentration at which maximal inhibitory effect on the increased calcineurin phosphatase activity was observed (calcineurin): 1000 nM
- % Apoptosis (sub-G0/G1 fraction) (H9c2 cardiac myoblasts; FK506 9 μM): 11 ± 3%
- % G0/G1 (H9c2 cardiac myoblasts; FK506 9 μM): 83 ± 5%
- % G2/M (H9c2 cardiac myoblasts; FK506 9 μM): 4 ± 1%
- % S (H9c2 cardiac myoblasts; FK506 9 μM): 4 ± 1%

Molecule: CypA/wt: wild type rat brain CypA gene transfected into and overexpressed in H9c2 rat cardiac myoblasts
- ROS level (ROS [1]): reduced the ROS level
- time required for muscle differentiation (H9c2 myoblasts [2]): 8 to 9 days
- muscle differentiation in DM (H9c2 myoblasts [2]): undergo muscle differentiation
- protection from differentiation blockage (H9c2 myoblasts [3]): not from differentiation blockage
- protection from CsA- or H2O2-induced apoptotic cell death (H9c2 myoblasts [3]): protect cells
- Bax expression (Bax [4]): inhibited Bax expression

B1: catalase: antioxidant enzyme purchased from Sigma (protein, UniProt P00432 2-527, looked up)
Catalase: ADNRDPASDQMKHWKEQRAAQKPDVLTTGGGNPVGDKLNSLTVGPRGPLLVQDVVFTDEMAHFDRERIPERVVHAKGAGAFGYFEVTHDITRYSKAKVFEHIGKRTPIAVRFSTVAGESGSADTVRDPRGFAVKFYTEDGNWDLVGNNTPIFFIRDALLFPSFIHSQKRNPQTHLKDPDMVWDFWSLRPESLHQVSFLFSDRGIPDGHRHMNGYGSHTFKLVNANGEAVYCKFHYKTDQGIKNLSVEDAARLAHEDPDYGLRDLFNAIATGNYPSWTLYIQVMTFSEAEIFPFNPFDLTKVWPHGDYPLIPVGKLVLNRNPVNYFAEVEQLAFDPSNMPPGIEPSPDKMLQGRLFAYPDTHRHRLGPNYLQIPVNCPYRARVANYQRDGPMCMMDNQGGAPNYYPNSFSAPEHQPSALEHRTHFSGDVQRFNSANDDNVTQVRTFYLKVLNEEQRKRLCENIAGHLKDAQLFIQKKAVKNFSDVHPEYGSRIQALLDKYNEEKPKNAVHTYVQHGSHLSAREKANL
- effect on muscle differentiation (H9c2 myoblasts [5]): blocking activity
